From the supplement of paper PMC10307832

What was measured:
Assay in all cases: relative viability (nuclei count vs DMSO), 5 days (fraction); higher = more cells survive
Tosedostat + Dasatinib = compound: CC(C)C[C@@H](C(=O)N[C@H](C(=O)OC1CCCC1)c1ccccc1)[C@H](O)C(=O)NO [Tosedostat] + Cc1nc(Nc2ncc(C(=O)Nc3c(C)cccc3Cl)s2)cc(N2CCN(CCO)CC2)n1 [Dasatinib] (partner 0.075 µM)
In short: (§1)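 One day after seeding in 1536-well plates, lung cancer cell lines were dosed by pin tool. Dosing was either single-drug or a fixed anchor-drug dose plus five library-drug doses (not always all listed) in √10 steps. After 5 days, nuclei were stained in one fix-and-stain step and counted on 4× images, and relative viability is the nuclei count of treated wells over that of vehicle wells, given as the median of duplicate plates.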

[1] = compound: CC1=NN=C(O1)C2=NN=C(C=C2)N3CCC(CC3)OC4=C(C=CC(=C4)F)Cl + CC(=O)Nc1cccc(-n2c(=O)n(C3CC3)c(=O)c3c(Nc4ccc(I)cc4F)n(C)c(=O)c(C)c32)c1 [Trametinib] (partner 0.02 µM)
In short: as §1

[2] = compound: CC1=NN=C(O1)C2=NN=C(C=C2)N3CCC(CC3)OC4=C(C=CC(=C4)F)Cl + COc1cc2c(Oc3ccc(NC(=O)C4(C(=O)Nc5ccc(F)cc5)CC4)cc3F)ccnc2cc1OCCCN1CCOCC1 [Foretinib] (partner 0.25 µM)
In short: as §1

[3] = compound: CC1=NN=C(O1)C2=NN=C(C=C2)N3CCC(CC3)OC4=C(C=CC(=C4)F)Cl + CS(=O)(=O)N1CCN(Cc2cc3nc(-c4cccc5[nH]ncc45)nc(N4CCOCC4)c3s2)CC1 [Pictilisib] (partner 1 µM)
In short: as §1

| Cell Line | relative viability (Tosedostat + Dasatinib; first compound 0.02 µM) | relative viability (Tosedostat + Dasatinib; first compound 0.06325 µM) | relative viability (Tosedostat + Dasatinib; first compound 0.2 µM) | relative viability (Tosedostat + Dasatinib; first compound 0.6325 µM) | relative viability (Tosedostat + Dasatinib; first compound 2 µM) | relative viability ([1]; first compound 0.253 µM) | relative viability ([1]; first compound 0.8 µM) | relative viability ([1]; first compound 2.53 µM) | relative viability ([1]; first compound 8 µM) | relative viability ([2]; first compound 0.253 µM) | relative viability ([2]; first compound 2.53 µM) | relative viability ([2]; first compound 8 µM) | relative viability ([3]; first compound 0.253 µM) | relative viability ([3]; first compound 0.8 µM) | relative viability ([3]; first compound 2.53 µM) | relative viability ([3]; first compound 8 µM) | relative viability ([2]; first compound 0.8 µM) |
| --- | --- | --- | --- | --- | --- | --- | --- | --- | --- | --- | --- | --- | --- | --- | --- | --- | --- |
| SK-LU-1 | 0.184 | 0.191 | 0.219 | 0.197 | 0.203 | 0.47 | 0.417 | 0.531 | 0.407 | 0.698 | 0.696 | 0.557 | 0.518 | 0.508 | 0.529 | 0.42 |  |
| NCI-H650 | 0.471 | 0.49 | 0.424 | 0.422 | 0.388 | 0.933 | 0.874 | 0.934 | 0.862 | 1.01 | 0.911 | 1.06 | 0.869 | 0.775 | 0.47 | 0.889 | 0.959 |
| LU99A | 0.517 | 0.495 | 0.506 | 0.424 | 0.413 | 0.525 | 0.59 | 0.577 | 0.509 | 0.826 | 0.836 | 0.742 | 0.303 | 0.327 | 0.304 | 0.34 | 0.868 |
| NCI-H520 | 0.146 | 0.202 |  | 0.243 | 0.28 | 0.656 | 0.578 | 0.648 | 0.475 | 0.653 | 0.757 | 0.77 | 0.3 | 0.325 | 0.29 | 0.316 |  |
| NCI-H661 | 1.02 | 0.834 | 0.846 | 0.815 | 0.695 | 0.489 | 0.472 | 0.429 | 0.379 | 0.912 | 0.837 | 0.731 | 0.386 | 0.367 | 0.376 | 0.366 | 0.845 |
| PC-3 [JPC-3] | 0.999 | 1.06 | 0.929 | 0.621 | 0.7 | 0.634 | 0.684 | 0.668 | 0.748 | 0.774 | 0.874 | 0.855 | 0.602 | 0.677 | 0.84 | 0.654 | 0.923 |
| RERF-LC-KJ | 0.873 | 0.77 | 0.771 | 0.623 | 0.511 | 0.665 | 0.593 | 0.595 | 0.612 | 0.617 | 0.544 | 0.519 | 0.561 | 0.529 | 0.482 | 0.454 | 0.533 |
| NCI-H1793 | 0.431 | 0.408 | 0.388 | 0.316 | 0.37 | 0.434 | 0.511 | 0.509 | 0.403 | 0.448 | 0.565 | 0.621 | 0.307 | 0.312 | 0.31 | 0.347 | 0.639 |
| NCI-H1915 | 0.321 | 0.348 | 0.306 | 0.277 | 0.215 | 0.293 | 0.267 | 0.277 | 0.239 | 0.685 | 0.531 | 0.402 | 0.763 | 0.586 | 0.698 | 0.563 | 0.532 |
| H3255 | 0.278 | 0.35 | 0.347 | 0.429 | 0.33 | 0.407 | 0.491 | 0.573 | 0.483 | 0.793 | 0.783 | 0.673 | 0.505 | 0.438 | 0.433 | 0.397 | 0.644 |
| 201T | 0.566 | 0.632 | 0.635 | 0.717 | 0.553 | 0.414 | 0.425 | 0.405 | 0.384 | 0.607 | 0.661 | 0.73 | 0.537 | 0.634 | 0.681 | 0.663 | 0.758 |
| NCI-H2405 | 0.221 | 0.266 | 0.218 | 0.211 | 0.164 | 0.526 | 0.451 | 0.432 | 0.411 | 0.582 | 0.546 | 0.555 | 0.401 | 0.523 | 0.4 | 0.385 | 0.564 |
| HOP-62 | 0.678 | 0.628 | 0.665 | 0.685 | 0.57 | 0.361 | 0.361 | 0.361 | 0.397 | 0.806 | 0.806 | 0.543 | 0.652 |  | 0.645 | 0.331 | 0.833 |
| CAL-12T | 0.316 | 0.489 | 0.472 | 0.381 | 0.217 | 0.337 | 0.313 | 0.255 | 0.217 | 0.965 | 0.879 | 0.777 | 0.392 | 0.553 | 0.327 | 0.191 | 0.964 |
| NCI-H727 | 0.404 | 0.339 |  | 0.311 | 0.29 | 0.467 | 0.402 | 0.385 | 0.341 | 0.786 | 0.838 | 0.828 | 0.475 | 0.4 | 0.498 | 0.403 | 0.822 |
| NCI-H1993 | 0.471 | 0.561 | 0.502 | 0.519 | 0.505 | 0.453 | 0.523 | 0.655 | 0.593 | 0.664 | 0.709 | 0.7 | 0.742 | 0.78 | 0.821 | 0.789 | 0.682 |
| NCI-H2228 | 0.51 | 0.497 | 0.494 | 0.344 | 0.338 | 0.373 | 0.41 | 0.548 | 0.612 | 0.723 | 0.845 | 0.632 | 0.297 | 0.313 | 0.538 | 0.404 | 0.66 |
| NCI-H2126 | 0.611 | 0.662 | 0.636 | 0.63 | 0.558 | 0.528 | 0.532 | 0.504 | 0.486 | 0.982 | 0.958 | 0.985 | 0.433 | 0.478 | 0.441 | 0.412 | 0.932 |
